What all share (assay type): in vivo
Experiment [1] relates to Pigweed (Amaranthus retroflexus). The experiment can be described thus: Pre-Emergent Test, herbicidal effectiveness. The conditions noted are these: pre-emergence, 504 h, 0-to-100 scale, read-out: Herbicidal Effectiveness, % Control Pre, P; for pest or weed control at 33 µg/cm2: 33 micrograms per cm^2, 3 weeks. The procedure:
(§1) An acetone solution of the test compound was prepared by mixing 750 mg of the compound, 220 mg of a nonionic surfactant and 25 ml of acetone. This solution was added to approximately 125 ml of water containing 156 mg of surfactant.
(§2) Seeds of the test vegetation were planted in a pot of soil and the test solution was sprayed uniformly onto the soil surface at a dose of 33 micrograms/cm^2. The pot was watered and placed in a greenhouse. […] At the end of this period, the herbicidal effectiveness of the compound was rated based on the physiological observations. A 0-to-100 scale was used, 0 representing no phytotoxicity, 100 representing complete kill.

The subject of experiment [2] is Mustard (Brassica arvensis). Briefly: Pre-Emergent Test, herbicidal effectiveness. The settings on record: pre-emergence, 504 h, 0-to-100 scale; for pest or weed control at 33 µg/cm2: 33 micrograms per cm^2, 3 weeks. As to the method: as §1, §2
For experiment [3], the system named is Watergrass (Echinochloa). The experiment can be described thus: Pre-Emergent Test, herbicidal effectiveness. The conditions noted are these: pre-emergence, 504 h, 0-to-100 scale, read-out: Herbicidal Effectiveness, % Control Pre, W; for pest or weed control at 33 µg/cm2: 33 micrograms per cm^2, 3 weeks; for pest or weed control at 11 µg/cm2: 11 micrograms per cm^2, 3 weeks. The procedure: as §1, §2

For experiment [4], the system named is Lambsquarter (Chenopodium album). Briefly: Pre-Emergent Test, herbicidal effectiveness. The conditions noted are these: pre-emergence, 504 h, 0-to-100 scale, read-out: Herbicidal Effectiveness, % Control Pre, L; for pest or weed control at 33 µg/cm2: 33 micrograms per cm^2, 3 weeks. As to the method: as §1, §2
Experiment [5] has as its system Wild Oats (Avena fatua). Briefly: Pre-Emergent Test, herbicidal effectiveness. The settings on record: pre-emergence, 504 h, 0-to-100 scale, read-out: Herbicidal Effectiveness, % Control Pre, O; for pest or weed control at 33 µg/cm2: 33 micrograms per cm^2, 3 weeks; for pest or weed control at 11 µg/cm2: 11 micrograms per cm^2, 3 weeks. As to the method: as §1, §2

Experiment [6] has as its system Crabgrass (Digitaria sanguinalis). Briefly: Pre-Emergent Test, herbicidal effectiveness. The settings on record: pre-emergence, 504 h, 0-to-100 scale, read-out: Herbicidal Effectiveness, % Control Pre, C; for pest or weed control at 33 µg/cm2: 33 micrograms per cm^2, 3 weeks. The procedure: as §1, §2
Experiment [7] has as its system Pigweed (Amaranthus retroflexus). The experiment can be described thus: Post-Emergent Test, herbicidal effectiveness. The settings on record: post-emergence, 504 h, 33 micrograms per cm^2, 3 weeks, 0-to-100 scale, read-out: Herbicidal Effectiveness, % Control Post, P.
The test system of experiment [8] is Mustard (Brassica arvensis). Briefly: Post-Emergent Test, herbicidal effectiveness. The conditions noted are these: post-emergence, 504 h, 33 micrograms per cm^2, 3 weeks, 0-to-100 scale.
Experiment [9] has as its system Watergrass (Echinochloa). The experiment can be described thus: Post-Emergent Test, herbicidal effectiveness. The conditions noted are these: post-emergence, 504 h, 33 micrograms per cm^2, 3 weeks, 0-to-100 scale, read-out: Herbicidal Effectiveness, % Control Post, W.
Experiment [10] concerns Lambsquarter (Chenopodium album). The experiment can be described thus: Post-Emergent Test, herbicidal effectiveness. The settings on record: post-emergence, 504 h, 33 micrograms per cm^2, 3 weeks, 0-to-100 scale, read-out: Herbicidal Effectiveness, % Control Post, L.
For experiment [11], the system named is Wild Oats (Avena fatua). The experiment can be described thus: Post-Emergent Test, herbicidal effectiveness. The conditions noted are these: post-emergence, 504 h, 33 micrograms per cm^2, 3 weeks, 0-to-100 scale, read-out: Herbicidal Effectiveness, % Control Post, O.
Experiment [12] has as its system Crabgrass (Digitaria sanguinalis). The experiment can be described thus: Post-Emergent Test, herbicidal effectiveness. The settings on record: post-emergence, 504 h, 33 micrograms per cm^2, 3 weeks, 0-to-100 scale, read-out: Herbicidal Effectiveness, % Control Post, C.
[13] abbreviates: 11 micrograms per cm^2, 3 weeks.

Structures are written as SMILES.

As to `Cc1nnc(CN(C(=O)CCl)c2ccccc2C)[nH]1` [Compound 25B], the pest or weed control at 33 µg/cm2 came out at 70% in experiment [1]; 45% in experiment [2]; 100% in the experiment with Watergrass (Echinochloa) [3]; 100% in experiment [4]; 0% with Wild Oats (Avena fatua) [5]; 97% in [6]. In addition, the pest or weed control at 5000 µg/mL, 33 µg/cm2 was 0% in [7]; 0% in experiment [8]; 40% with Watergrass (Echinochloa) [9]; 0% in experiment [10]; 0% in the experiment with Wild Oats (Avena fatua) [11]; 0% in [12].
For `CCc1nnc(CN(C(=O)CCl)c2c(CC)cccc2CC)[nH]1` [Compound 8B], the pest or weed control at 11 µg/cm2 in experiment [1] (setting [13]) worked out at 90%; in experiment [2] (setting [13]) it was 83%; with Watergrass (Echinochloa) [3] it was 100%; in experiment [4] (setting [13]), 100%; with Wild Oats (Avena fatua) [5], 99%; in experiment [6] (setting [13]), 100%.
As to `CSc1nnc(CNc2c(C)cccc2C)n1C` [Compound 14A], the pest or weed control at 33 µg/cm2 (in experiment [1]; in [2]; in the experiment on Watergrass (Echinochloa) [3]; in [4]; with Wild Oats (Avena fatua) [5]; in experiment [6]) was 0% throughout. Also, the pest or weed control at 5000 µg/mL, 33 µg/cm2 (in [7]; in experiment [8]; in the experiment on Watergrass (Echinochloa) [9]; in experiment [10]; with Wild Oats (Avena fatua) [11]; in experiment [12]) was 0% throughout.
As to `Cc1cccc(C)c1N(C(=O)CCl)C(C)c1nnc[nH]1` (centres unmarked) [Compound 12B], the pest or weed control at 33 µg/cm2 worked out at 90% in [1]; 75% in experiment [2]; 100% in the experiment with Watergrass (Echinochloa) [3]; 75% in experiment [4]; 97% with Wild Oats (Avena fatua) [5]; 100% in experiment [6]. Also, the pest or weed control at 5000 µg/mL, 33 µg/cm2 in experiment [7] was determined as 20%; in experiment [8], 0%; in the experiment with Watergrass (Echinochloa) [9], 80%; in experiment [10], 45%; with Wild Oats (Avena fatua) [11], 45%; in experiment [12] it was 65%.
Regarding `Cc1nnc(CCN(C(=O)CCl)c2c(C)cccc2C)[nH]1` [Compound 10B], the pest or weed control at 33 µg/cm2 in experiment [1] amounted to 0%; in experiment [2], 0%; in the experiment on Watergrass (Echinochloa) [3], 95%; in [4], 0%; in the experiment on Wild Oats (Avena fatua) [5], 15%; in [6], 80%. The pest or weed control at 5000 µg/mL, 33 µg/cm2 was determined as 0% in [7]; 35% in [8]; 55% with Watergrass (Echinochloa) [9]; 25% in [10]; 25% with Wild Oats (Avena fatua) [11]; 40% in experiment [12].
On to `Cc1nnc(CNc2ccc(Cl)c(Cl)c2)[nH]1` [Compound 27A], for which the pest or weed control at 33 µg/cm2 (in experiment [1]; in [2]; with Watergrass (Echinochloa) [3]; in [4]; with Wild Oats (Avena fatua) [5]; in experiment [6]) was 0% each time. For the same compound, the pest or weed control at 5000 µg/mL, 33 µg/cm2 (in [7]; in experiment [8]; in the experiment with Watergrass (Echinochloa) [9]; in experiment [10]; in the experiment on Wild Oats (Avena fatua) [11]; in [12]) was 0% throughout.
As for `Cc1nnc(CN(C(=O)CCl)c2cccc(C(F)(F)F)c2)[nH]1` [Compound 26B], the pest or weed control at 33 µg/cm2 in experiment [1] turned out to be 0%; in experiment [2], 10%; in the experiment on Watergrass (Echinochloa) [3] it was 65%; in experiment [4], 10%; with Wild Oats (Avena fatua) [5], 0%; in experiment [6], 0%. Moreover, the pest or weed control at 5000 µg/mL, 33 µg/cm2 (in experiment [7]; in experiment [8]; in the experiment on Watergrass (Echinochloa) [9]; in experiment [10]; in the experiment with Wild Oats (Avena fatua) [11]; in [12]) was 0% throughout.
As to `CCc1cccc(CC)c1NCc1nnc(SC)n1C` [Compound 23A], the pest or weed control at 33 µg/cm2 (in experiment [1]; in experiment [2]; in the experiment on Watergrass (Echinochloa) [3]; in experiment [4]; in the experiment on Wild Oats (Avena fatua) [5]; in experiment [6]) was 0% each time. For the same compound, the pest or weed control at 5000 µg/mL, 33 µg/cm2 (in [7]; in experiment [8]; in the experiment with Watergrass (Echinochloa) [9]; in experiment [10]; in the experiment with Wild Oats (Avena fatua) [11]; in experiment [12]) was 0% in each case.
Take `Cc1cccc(C)c1NC(C)c1nnc[nH]1` (centres unmarked) [Compound 12A]: the pest or weed control at 33 µg/cm2 (in experiment [1]; in experiment [2]; in the experiment with Watergrass (Echinochloa) [3]; in experiment [4]; in the experiment on Wild Oats (Avena fatua) [5]; in [6]) was 0% each time. Besides, the pest or weed control at 5000 µg/mL, 33 µg/cm2 (in [7]; in experiment [8]; in the experiment on Watergrass (Echinochloa) [9]; in experiment [10]; in the experiment with Wild Oats (Avena fatua) [11]; in experiment [12]) was 0% in each case.
With `CCc1cccc(C)c1NCc1nnc(C)[nH]1` [Compound 6A], the pest or weed control at 33 µg/cm2 (in [1]; in experiment [2]; with Watergrass (Echinochloa) [3]; in experiment [4]; in the experiment with Wild Oats (Avena fatua) [5]; in [6]) was 0% in each case. Further, the pest or weed control at 5000 µg/mL, 33 µg/cm2 (in [7]; in experiment [8]; in the experiment on Watergrass (Echinochloa) [9]; in experiment [10]; in the experiment with Wild Oats (Avena fatua) [11]; in experiment [12]) was 0% throughout.
Turning to `CCc1cccc(CC)c1N(Cc1nnc(C)[nH]1)C(=O)CCl` [Compound 5B], the pest or weed control at 11 µg/cm2 in the experiment with Watergrass (Echinochloa) [3] stood at 100%.
With `CCc1cccc(C)c1N(Cc1nnc(C)[nH]1)C(=O)CCl` [Compound 6B], in the experiment with Wild Oats (Avena fatua) [5], the pest or weed control at 11 µg/cm2 is 100%.

Source of the values: patent publication US4243408A, “Herbicidal N-triazolylmethyl-substituted alpha-haloacetanilide” (Chevron Research Company, priority 1978, dated 1981).
